Measurements from patent publication US7417036B2, “Crystal form of adefovir dipivoxil and its preparation” (Tianjin Kinsly Pharmaceutical Co. Ltd., priority 2002, dated 2008).
Values joined by “and” are separate entries in the source; they are usually repeats but may differ in a detail not shown here. Equal values may be shown once.

Assay: Kinetic studies of the plasma concentration in animals with different crystalline forms of AD (oral, monkeys; adefovir measured in serum by HPLC)
Assay type: in vivo, Macaques
Details: 20 mg/kg, 20 mg/kg
Description: The experiment was carried out by orally administering to monkeys the drugs in order to investigate the in vivo absorption of two crystalline forms of AD: the novel crystalline AD of the present invention produced by Tianjin Kinsly pharmaceutical R & D Co. Ltd. and crystalline form I of AD prepared according to the method of GILEAD SCIENCES INC. The experiment provides useful clinical references for the application of novel crystalline AD.
Tablets of novel crystalline form of AD, white, each of which contains 10 mg of adefovir, Tianjin Kinsly pharmaceutical R&D Co. Ltd., batch number 020320.
Tablets of AD crystalline form I, white, each of which contains 10 mg of adefovir, Tianjin Kinsly pharmaceutical R&D Co. Ltd., batch number 020225.
Macaques, weighing from 5 kg to 8 kg (certificate No: 2001-03, approved by Beijing Forestry Administration in the document of [2001] 83) were provided by Xie'er Animal Health Caring Science and Technology Co. Ltd (Beijing, P. R. China).
As the pro-drug of adefovir, AD is the bis-pivaloyloxymethyl ester of adefovir, which increases the in vivo bioavailability of orally administered adefovir. AD can be rapidly metabolized into PMEA, rendering it undetectable in blood. Thus the concentration of its parent compound was measured.
Mobile phase: 0.2% phosphoric acid-methanol-B7 (97:3:0.5) degassed and filtrated through 0.45 μm milipore filter.
Stationary phase: C18-column (4.6×250 mm) packed with 5μ fillers, Tianjin Tianhe Chromatogram Inc, the column temperature from 18° C. to 22° C.
Detection: the UV detection wavelength λ=260 nm (0.01AUFS)
A given volume of serum was taken and an equal volume of 10% trichloroacetic acid was added. The mixture was shaken thoroughly and kept still for more than 30 min to precipitate the proteins, then centrifuged at 10000 rpm for 2 min. The precipitates were separated and 30 μL of the supernat was removed for injection.
The experiment was started one week after intestinal worms were dispelled from the animals. Eight animals were randomly assigned into two groups, each consisting of four animals. The animals were fasted for 12 h and were orally administered the novel crystalline form of AD for one group or crystalline form I of AD for another group at a dose of 20 mg/kg together with 200 ml of water. 2 hours after administration, the animals were fed in a fixed quantity. 2.0 ml samples of whole blood were collected from the elbow veins before administration and 10, 20, 30, 45 min and 1, 2, 4, 6, 8, 12, and 24 h after administration. The serum was separated and freeze-stored for measurement. A cross-experiment was done similarly 2 weeks later.
The pharmacokinetic parameters were calculated based on the plasma concentrations at different time points. The time to peak concentration (Tpeak) and the maximum concentration (Cmax) used the measured value. The terminal phase elimination rate constant (Ke) was obtained by fitting the linear section of the curve of logarithm of the plasma concentration of drug in terminal phase versus time and the terminal phase clearance half life time (T1/2) was calculated by dividing 0.693 by Ke. AUC0-t was calculated according to the trapezoid rule.
Apparent volume of distribution (Vd)=dosage/(AUCXKe);
Total Clearance (CL)=dosage/AUC.
Comparison of the data of the two crystalline form: Data of Cmax, Ke, T1/2 and AUC0-t were statistically processed by t test, while Tpeak was processed by non-parametric test. In addition, Comparison of bio-equivalence was carried out based on Cmax and AUC0-t by using two one-sided t test.
Eight macaques were assigned into two groups, group for the novel crystalline form and the group for crystalline form I. The animals were administered according to an open randomized crossover scheme. Afterward, adefovir concentrations in serum were measured at the predetermined time points. […]

[1] = adefovir, oral 20 mg/kg, macaques, average of 8 animals (ASD row)
[2] = adefovir, oral 20 mg/kg, macaques, average of 8 animals
[3] = adefovir, oral 20 mg/kg, macaques, individual animal No. 1-8

For CC(C)(C)C(=O)OCOP(=O)(COCCn1cnc2c(N)ncnc21)OCOC(=O)C(C)(C)C [novel crystalline form], the “Adefovir concentrations in serum (Plasma concentrations versus time), average” value (0.167 h after oral administration, macaques, average of 8 animals (ASD row)) was 74.3 ng/mL, the “Adefovir concentrations in serum (Plasma concentrations versus time)” value (0.167 h after oral administration, macaques, individual animal No. 1-8) was 51.8 ng/mL and 105.0 ng/mL and 103.9 ng/mL and 78.3 ng/mL and 64.9 ng/mL and 53.2 ng/mL and 60.0 ng/mL and 76.9 ng/mL and the “Adefovir concentrations in serum (Plasma concentrations versus time), average” value (0.333 h after oral administration, macaques, average of 8 animals (ASD row)) was 201.4 ng/mL. The “Adefovir concentrations in serum (Plasma concentrations versus time)” value (0.333 h after oral administration, macaques, individual animal No. 1-8) was 186.7 ng/mL and 258.5 ng/mL and 248.8 ng/mL and 190.1 ng/mL and 125.9 ng/mL and 154.1 ng/mL and 176.3 ng/mL and 270.7 ng/mL, the “Adefovir concentrations in serum (Plasma concentrations versus time), average” value (0.5 h after oral administration, macaques, average of 8 animals (ASD row)) was 507.4 ng/mL and the “Adefovir concentrations in serum (Plasma concentrations versus time)” value (0.5 h after oral administration, macaques, individual animal No. 1-8) was 952.4 ng/mL and 403.1 ng/mL and 398.3 ng/mL and 541.8 ng/mL and 396.0 ng/mL and 448.9 ng/mL and 529.4 ng/mL and 389.5 ng/mL. The “Adefovir concentrations in serum (Plasma concentrations versus time), average” value (0.75 h after oral administration, macaques, average of 8 animals (ASD row)) was 392.0 ng/mL, the “Adefovir concentrations in serum (Plasma concentrations versus time)” value (0.75 h after oral administration, macaques, individual animal No. 1-8) was 507.6 ng/mL and 306.8 ng/mL and 538.7 ng/mL and 360.6 ng/mL and 278.8 ng/mL and 195.6 ng/mL and 393.7 ng/mL and 55.0 ng/mL and the “Adefovir concentrations in serum (Plasma concentrations versus time), average” value (1 h after oral administration, macaques, average of 8 animals (ASD row)) was 238.8 ng/mL. The “Adefovir concentrations in serum (Plasma concentrations versus time)” value (1 h after oral administration, macaques, individual animal No. 1-8) was 260.3 ng/mL and 231.8 ng/mL and 374.7 ng/mL and 269.4 ng/mL and 233.5 ng/mL and 132.7 ng/mL and 273.4 ng/mL, the “Adefovir concentrations in serum (Plasma concentrations versus time), average” value (2 h after oral administration, macaques, average of 8 animals (ASD row)) was 199.3 ng/mL and the “Adefovir concentrations in serum (Plasma concentrations versus time)” value (2 h after oral administration, macaques, individual animal No. 1-8) was 221.6 ng/ml and 196.1 ng/ml (2×) and 241.4 ng/ml and 117.7 ng/ml and 105.3 ng/ml and 260.3 ng/ml. The “Adefovir concentrations in serum (Plasma concentrations versus time), average” value (4 h after oral administration, macaques, average of 8 animals (ASD row)) was 157.3 ng/mL, the “Adefovir concentrations in serum (Plasma concentrations versus time)” value (4 h after oral administration, macaques, individual animal No. 1-8) was 205.1 ng/mL and 140.9 ng/mL and 184.8 ng/mL and 198.9 ng/mL and 175.8 ng/mL and 85.0 ng/mL and 77.2 ng/mL and 191.0 ng/mL and the “Adefovir concentrations in serum (Plasma concentrations versus time), average” value (6 h after oral administration, macaques, average of 8 animals (ASD row)) was 119.7 ng/mL. The “Adefovir concentrations in serum (Plasma concentrations versus time)” value (6 h after oral administration, macaques, individual animal No. 1-8) was 177.0 ng/mL and 114.5 ng/mL and 95.2 ng/mL and 141.2 ng/mL and 141.3 ng/mL and 85.9 ng/mL and 57.3 ng/mL and 145.3 ng/mL, the “Adefovir concentrations in serum (Plasma concentrations versus time), average” value (8 h after oral administration, macaques, average of 8 animals (ASD row)) was 102.7 ng/mL and the “Adefovir concentrations in serum (Plasma concentrations versus time)” value (8 h after oral administration, macaques, individual animal No. 1-8) was 158.9 ng/mL and 96.9 ng/mL and 112.0 ng/mL and 89.4 ng/mL and 110.7 ng/mL and 79.0 ng/mL and 55.6 ng/mL and 119.2 ng/mL. For the same molecule, the “Adefovir concentrations in serum (Plasma concentrations versus time), average” value (12 h after oral administration, macaques, average of 8 animals (ASD row)) was 70.3 ng/mL, the “Adefovir concentrations in serum (Plasma concentrations versus time)” value (12 h after oral administration, macaques, individual animal No. 1-8) was 112.6 ng/mL and 82.1 ng/mL and 46.1 ng/mL and 64.5 ng/mL and 44.8 ng/mL and 59.4 ng/mL and 80.5 ng/mL and 72.2 ng/mL and the “Adefovir concentrations in serum (Plasma concentrations versus time), average” value (24 h after oral administration, macaques, average of 8 animals (ASD row)) was 51.7 ng/mL. For the same molecule, the “Adefovir concentrations in serum (Plasma concentrations versus time)” value (24 h after oral administration, macaques, individual animal No. 1-8) was 99.3 ng/mL and 76.3 ng/mL and 28.3 ng/mL and 53.1 ng/mL and 36.6 ng/mL and 41.6 ng/mL and 59.4 ng/mL and 19.2 ng/mL, the Vd (adefovir apparent volume of distribution, oral 20 mg/kg, macaques, individual animal No. 1-8) was 147.5 L and 211.8 L and 89.1 L and 115.1 L and 112.4 L and 265.9 L and 224.6 L and 67.1 L and the “CL, average” value [1] was 8601.4 mL/h. The “Ke, average” value [1] was 0.066 L/h, the “T1/2, average” value [1] was 12.5 h and the “Tpeak, average” value [1] was 0.56 h. For the same molecule, the “Vd, average” value [1] was 154.2 L, the “AUC0-t, average” value [2] was 2426.4 ng·h/mL and the “Cmax, average” value [2] was 545.7 ng/mL. The “AUC0-t, average” value (adefovir, oral 20 mg/kg, macaques, average of 8 animals, listed as Novel form) was 2426 ng·h/mL, the AUC0-t [3] was 3593.4 ng·h/mL and 2567.8 ng·h/mL and 2318.3 ng·h/mL and 2554.7 ng·h/mL and 2162.8 ng·h/mL and 1735.9 ng·h/mL and 1921.2 ng·h/mL and 2556.8 ng·h/mL and the Cmax [3] was 403.1 ng/mL and 538.7 ng/mL and 541.8 ng/mL and 396.3 ng/mL and 448.9 ng/mL and 529.4 ng/mL and 555.0 ng/mL. For the same molecule, the T1/2 [3] was 18.4 h and 18.8 h and 7.2 h and 10.2 h and 8.4 h and 16.0 h and 14.9 h and 5.9 h, the Tpeak [3] was 0.50 h (6×) and 0.75 h (2×) and the Cmax (adefovir, oral 20 mg/kg, macaques, individual animal No. 1-8, listed as Novel form) was 952.4 ng/mL and 396.2 ng/mL and 448.8 ng/mL. For the same molecule, the “average AUCO-T” value (adefovir, oral 20 mg/kg) was 2426.37 ng·h/mL, the “average Tpeak” value (adefovir, oral 20 mg/kg) was 0.56 h and the “average apparent volume of distribution (Vc)” value (adefovir, oral 20 mg/kg) was 19.74 L. For the same molecule, the “average elimination half-life time” value (adefovir, oral 20 mg/kg) was 12.5 h and the average peak concentration (adefovir, oral 20 mg/kg) was 545.69 ng/mL.
